We go through 1 compound from patent publication US20050050594A1, “Tryptophan synthase as a site of herbicide action” (priority 1999, published 2005).

One may read the IC50 as the concentration that gives 50% inhibition.

In this test the target is T1, Salmonella typhimurium tryptophan synthase holoenzyme (α2β2), TSα reaction (Salmonella typhimurium, UniProt P00929).
T1 construct: made in house; host or cells: E. coli strain CB149pSTB7
Put plainly: Inhibition of tryptophan synthase by the TSα reaction, microtiter kinetic coupled enzyme assay. The test is classed as biochemical. In short, it runs like this:
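S. typhimurium α2β2 holoenzyme (~1.5 e.u.) in 50 mM Tris-Cl pH 7.8 with 60 mM serine, started with 100 μM IGP (1.5-2× Km), 37° C. Glyceraldehyde-3-P formation coupled to yeast GAPDH/1.6 mM NAD+, read at 340 nm. Inhibitor at 100 μM or 1:1 dilutions; some preincubated 24 h before IGP.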

T1 sequence (P00929 whole entry): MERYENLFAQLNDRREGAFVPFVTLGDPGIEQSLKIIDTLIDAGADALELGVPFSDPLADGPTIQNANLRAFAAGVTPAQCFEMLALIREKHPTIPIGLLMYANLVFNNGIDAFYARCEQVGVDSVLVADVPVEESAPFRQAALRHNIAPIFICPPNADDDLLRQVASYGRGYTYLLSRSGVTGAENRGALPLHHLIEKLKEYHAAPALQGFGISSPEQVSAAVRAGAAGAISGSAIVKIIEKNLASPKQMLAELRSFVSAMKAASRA
T1 sequence (P0A2K1 2-397, further chain): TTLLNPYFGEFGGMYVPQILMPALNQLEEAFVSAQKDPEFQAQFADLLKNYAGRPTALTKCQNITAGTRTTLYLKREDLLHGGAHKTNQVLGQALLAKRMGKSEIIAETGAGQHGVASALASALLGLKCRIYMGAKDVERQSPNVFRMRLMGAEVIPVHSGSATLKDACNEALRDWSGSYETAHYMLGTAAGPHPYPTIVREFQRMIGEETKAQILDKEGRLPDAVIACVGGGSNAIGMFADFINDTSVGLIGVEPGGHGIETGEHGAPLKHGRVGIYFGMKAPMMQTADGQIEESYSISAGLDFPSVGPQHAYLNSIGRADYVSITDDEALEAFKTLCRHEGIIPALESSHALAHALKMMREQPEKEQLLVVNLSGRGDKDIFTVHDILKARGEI

For the compound `O=P(O)(O)CCCCSc1ccccc1O` [Compound 22, {4-[(o-hydroxyphenyl)thio]butyl}-phosphonic acid], the IC50 was 130 nM (I50 TS, TSα reaction of Salmonella holoenzyme) and 130 nM (TSα activity (Salmonella enzyme) I50).
